Results on 26 compounds are retold here after patent US20250353820A1, “ANTIVIRAL PYRAZOLOPYRIDINONE COMPOUNDS” (Novartis AG, priority 2019, published 2025).

For this experiment, the target named is human HSV DNA polymerase UL30 (Human herpesvirus 1 (strain 17) (HHV-1) (Human herpes simplex virus 1), UniProt P04293). As to the kind of experiment: biochemical. Conditions: 625 pM HSV polymerase, 20 minutes at room temperature; read-out: HSV-polymerase Biochemical IC50.
With `Cn1nc(C(=O)NCc2ccc(C#N)cc2)c2c1C(=O)N(CC1(S(=O)(=O)C(C)(C)CN3CC4CC(C3)O4)CC1)CC2` [Example 63, 6-((1-((1-(6-Oxa-3-azabicyclo[3.1.1]heptan-3-yl)-2-methylpropan-2-yl)sulfonyl)cyclopropyl)methyl)-N-(4-cyanobenzyl)-1-methyl-7-oxo-4,5,6,7-tetrahydro-1H-pyrazolo[3,4-c]pyridine-3-carboxamide], the IC50 was determined as 100 nM.

As to `Cn1nc(C(=O)NCc2ccc(C#N)cc2)c2c1C(=O)N(CC1(S(=O)(=O)C3CC3)CC1)CC2` [Example 3, N-(4-cyanobenzyl)-6-((1-(cyclopropylsulfonyl)cyclopropyl)methyl)-1-methyl-7-oxo-4,5,6,7-tetrahydro-1H-pyrazolo[3,4-c]pyridine-3-carboxamide], the half-inhibitory concentration (IC50) amounted to 55 nM.

Consider `Cn1nc(C(=O)NCc2ccc(C#N)cc2)c2c1C(=O)N(CC1(S(=O)(=O)N3CCOCC3)CC1)CC2` [Example 124, N-(4-Cyanobenzyl)-1-methyl-6-((1-(morpholinosulfonyl)cyclopropyl)methyl)-7-oxo-4,5,6,7-tetrahydro-1H-pyrazolo[3,4-c]pyridine-3-carboxamide], for which the IC50 came to 121 nM.

Consider `CC1(S(=O)(=O)C2(CN3CCc4c(C(=O)NCc5ccc(Cl)cc5)nn(CCOCCO)c4C3=O)CC2)CC1` [Example 222, N-(4-Chlorobenzyl)-1-(2-(2-hydroxyethoxy)ethyl)-6-((1-((1-methylcyclopropyl)sulfonyl)cyclopropyl)methyl)-7-oxo-4,5,6,7-tetrahydro-1H-pyrazolo[3,4-c]pyridine-3-carboxamide], for which the half-inhibitory concentration (IC50) was found to be 43 nM.

`CN(C)CC(=O)NCC(C)(C)S(=O)(=O)C1(CN2CCc3c(C(=O)NCc4ccc(C#N)cc4)nn(C)c3C2=O)CC1` [Example 78, N-(4-Cyanobenzyl)-6-((1-((1-(2-(dimethylamino)acetamido)-2-methylpropan-2-yl)sulfonyl)cyclopropyl)methyl)-1-methyl-7-oxo-4,5,6,7-tetrahydro-1H-pyrazolo[3,4-c]pyridine-3-carboxamide]: the concentration for half-maximal inhibition (IC50) turned out to be 206 nM.

With `Cn1nc(C(=O)NCc2ccc(C#N)cc2)c2c1C(=O)N(CC1(S(=O)(=O)C(C)(C)CN3CC4(COC4)C3)CC1)CC2` [Example 67, N-(4-Cyanobenzyl)-1-methyl-6-((1-((2-methyl-1-(2-oxa-6-azaspiro[3.3]heptan-6-yl)propan-2-yl)sulfonyl)cyclopropyl)methyl)-7-oxo-4,5,6,7-tetrahydro-1H-pyrazolo[3,4-c]pyridine-3-carboxamide], the IC50 came out at 48 nM.

For the compound `Cn1nc(C(=O)NCc2ccc(C#N)cc2)c2c1C(=O)N(CC1(S(=O)(=O)NC(C)(C)CO)CC1)CC2` [Example 149, N-(4-Cyanobenzyl)-6-((1-(N-(1-hydroxy-2-methylpropan-2-yl)sulfamoyl)cyclopropyl)methyl)-1-methyl-7-oxo-4,5,6,7-tetrahydro-1H-pyrazolo[3,4-c]pyridine-3-carboxamide], the concentration for half-maximal inhibition (IC50) came out at 161 nM.

Turning to `Cn1nc(C(=O)NCc2ccc(C#N)cc2)c2c1C(=O)N(CC1(S(=O)(=O)Nc3ccccn3)CC1)CC2` [Example 155, N-(4-Cyanobenzyl)-1-methyl-7-oxo-6-((1-(N-(pyridin-2-yl)sulfamoyl)cyclopropyl)methyl)-4,5,6,7-tetrahydro-1H-pyrazolo[3,4-c]pyridine-3-carboxamide], the IC50 is 78 nM.

Consider `Cn1nc(C(=O)NCc2ccc(C#N)cc2)c2c1C(=O)N(CC1(S(=O)(=O)C3(CN)COC3)CC1)CC2` [Example 174, 6-((1-((3-(Aminomethyl)oxetan-3-yl)sulfonyl)cyclopropyl)methyl)-N-(4-cyanobenzyl)-1-methyl-7-oxo-4,5,6,7-tetrahydro-1H-pyrazolo[3,4-c]pyridine-3-carboxamide], for which the IC50 amounted to 92 nM.

Turning to `C[C@H](NC(=O)c1nn(C)c2c1CCN(CC1(S(=O)(=O)C(C)(C)CO)CC1)C2=O)c1ccc(C#N)cc1` [Example 54, (S)-N-(1-(4-Cyanophenyl)ethyl)-6-((1-((1-hydroxy-2-methylpropan-2-yl)sulfonyl)cyclopropyl)methyl)-1-methyl-7-oxo-4,5,6,7-tetrahydro-1H-pyrazolo[3,4-c]pyridine-3-carboxamide], the concentration for half-maximal inhibition (IC50) amounted to 103 nM.

As for `CNS(=O)(=O)C1(CN2CCc3c(C(=O)NCc4ccc(Cl)cc4)nn(C)c3C2=O)CC1` [Example 151, N-(4-Chlorobenzyl)-1-methyl-6-((1-(N-methylsulfamoyl)cyclopropyl)methyl)-7-oxo-4,5,6,7-tetrahydro-1H-pyrazolo[3,4-c]pyridine-3-carboxamide], the IC50 worked out at 118 nM.

On to `Cn1nc(C(=O)NCc2ccc(C#N)cc2)c2c1C(=O)N(CC1(S(=O)(=O)C(C)(C)CN3CC4CC3CO4)CC1)CC2` (centres unmarked) [Example 64, 6-((1-((1-(2-Oxa-5-azabicyclo[2.2.1]heptan-5-yl)-2-methylpropan-2-yl)sulfonyl)cyclopropyl)methyl)-N-(4-cyanobenzyl)-1-methyl-7-oxo-4,5,6,7-tetrahydro-1H-pyrazolo[3,4-c]pyridine-3-carboxamide], for which the IC50 was 60 nM.

Consider `Cc1ccc(CNC(=O)c2nn(C)c3c2CCN(CC2(S(=O)(=O)C4CC4)CC2)C3=O)cc1` [Example 8, 6-((1-(Cyclopropylsulfonyl)cyclopropyl)methyl)-1-methyl-N-(4-methylbenzyl)-7-oxo-4,5,6,7-tetrahydro-1H-pyrazolo[3,4-c]pyridine-3-carboxamide], for which the IC50 came to 1630 nM.

In the case of `CN(CCO)S(=O)(=O)C1(CN2CCc3c(C(=O)NCc4ccc(Cl)cc4)nn(C)c3C2=O)CC1` [Example 144, N-(4-Chlorobenzyl)-6-((1-(N-(2-hydroxyethyl)-N-methylsulfamoyl)cyclopropyl)methyl)-1-methyl-7-oxo-4,5,6,7-tetrahydro-1H-pyrazolo[3,4-c]pyridine-3-carboxamide], the IC50 came to 67 nM.

Consider `Cn1nc(-c2nnn(Cc3ccc(C#N)cc3)n2)c2c1C(=O)N(CC1(S(=O)(=O)C3CC3)CC1)CC2` [Example 29, 4-((5-(6-((1-(Cyclopropylsulfonyl)cyclopropyl)methyl)-1-methyl-7-oxo-4,5,6,7-tetrahydro-1H-pyrazolo[3,4-c]pyridin-3-yl)-2H-tetrazol-2-yl)methyl)benzonitrile], for which the IC50 was 86 nM.

For `Cn1nc(C(=O)NCc2ccc(C#N)cc2)c2c1C(=O)N(CC1(S(=O)(=O)C(C)(C)COC3CNC3)CC1)CC2` [Example 102, 6-((1-((1-(Azetidin-3-yloxy)-2-methylpropan-2-yl)sulfonyl)cyclopropyl)methyl)-N-(4-cyanobenzyl)-1-methyl-7-oxo-4,5,6,7-tetrahydro-1H-pyrazolo[3,4-c]pyridine-3-carboxamide], the IC50 came out at 42 nM.

Turning to `CCS(=O)(=O)C1(CN2CCc3c(C(=O)NCc4ccc(C#N)cc4)nn(CC(C)(C)O)c3C2=O)CC1` [Example 233], the IC50 turned out to be 150 nM.

In the case of `Cn1nc(C(=O)NCc2ccc(C#N)cc2)c2c1C(=O)N(CC1(S(=O)(=O)C3(C(O)CN)CC3)CC1)CC2` (centres unmarked) [Example 208], the IC50 was 22 nM.

For the compound `COC(=O)NCC(C)(C)S(=O)(=O)C1(CN2CCc3c(C(=O)NCc4ccc(C#N)cc4)nn(C)c3C2=O)CC1` [Example 73, Methyl (2-((1-((3-((4-cyanobenzyl)carbamoyl)-1-methyl-7-oxo-1,4,5,7-tetrahydro-6H-pyrazolo[3,4-c]pyridin-6-yl)methyl)cyclopropyl)sulfonyl)-2-methylpropyl)carbamate], the IC50 stood at 40 nM.

Consider `Cn1nc(-c2noc(Cc3ccc(C#N)cc3)n2)c2c1C(=O)N(CC1(S(=O)(=O)C3CC3)CC1)CC2` [Example 28, 4-((3-(6-((1-(Cyclopropylsulfonyl)cyclopropyl)methyl)-1-methyl-7-oxo-4,5,6,7-tetrahydro-1H-pyrazolo[3,4-c]pyridin-3-yl)-1,2,4-oxadiazol-5-yl)methyl)benzonitrile], for which the IC50 stood at 29 nM.

With `Cn1nc(C(=O)N[C@@H](CO)c2ccc(Cl)cc2)c2c1C(=O)N(CC1(S(=O)(=O)C3CC3)CC1)CC2` [Example 18, (R)-N-(1-(4-Chlorophenyl)-2-hydroxyethyl)-6-((1-(cyclopropylsulfonyl)cyclopropyl)methyl)-1-methyl-7-oxo-4,5,6,7-tetrahydro-1H-pyrazolo[3,4-c]pyridine-3-carboxamide], the IC50 was found to be 1060 nM.

As to `Cn1nc(C(=O)NCc2ccc(C#N)cc2)c2c1C(=O)N(CC1(S(=O)(=O)C(C)(C)CNC(=O)C(C)(C)N)CC1)CC2` [Example 77, 6-((1-((1-(2-Amino-2-methylpropanamido)-2-methylpropan-2-yl)sulfonyl)cyclopropyl)methyl)-N-(4-cyanobenzyl)-1-methyl-7-oxo-4,5,6,7-tetrahydro-1H-pyrazolo[3,4-c]pyridine-3-carboxamide], the IC50 amounted to 142 nM.

In the case of `Cn1nc(C(=O)N[C@H](CO)c2ccc(Cl)cc2)c2c1C(=O)N(CC1(S(=O)(=O)C3CC3)CC1)CC2` [Example 19, (S)-N-(1-(4-Chlorophenyl)-2-hydroxyethyl)-6-((1-(cyclopropylsulfonyl)cyclopropyl)methyl)-1-methyl-7-oxo-4,5,6,7-tetrahydro-1H-pyrazolo[3,4-c]pyridine-3-carboxamide], the IC50 was determined as 8180 nM.

As for `Cn1nc(C(=O)NCc2ccc(C#N)cc2)c2c1C(=O)N(CC1(S(=O)(=O)NCCN)CC1)CC2` [Example 135, 6-((1-(N-(2-Aminoethyl)sulfamoyl)cyclopropyl)methyl)-N-(4-cyanobenzyl)-1-methyl-7-oxo-4,5,6,7-tetrahydro-1H-pyrazolo[3,4-c]pyridine-3-carboxamide], the IC50 amounted to 1090 nM.

`Cn1nc(C(=O)NCc2ccc(C#N)cc2)c2c1C(=O)N(CC1(S(=O)(=O)C(C)(C)CO)CC1)CC2` [Example 52, N-(4-Cyanobenzyl)-6-((1-((1-hydroxy-2-methylpropan-2-yl)sulfonyl)cyclopropyl)methyl)-1-methyl-7-oxo-4,5,6,7-tetrahydro-1H-pyrazolo[3,4-c]pyridine-3-carboxamide]: the IC50 was determined as 19 nM.

On to `Cn1nc(C(=O)NCc2ccc(Cl)cc2)c2c1C(=O)N(CC1(S(=O)(=O)C3CC3)CC1)CC2` [Example 4, N-(4-Chlorobenzyl)-6-((1-(cyclopropylsulfonyl)cyclopropyl)methyl)-1-methyl-7-oxo-4,5,6,7-tetrahydro-1H-pyrazolo[3,4-c]pyridine-3-carboxamide], for which the IC50 came out at 48 nM.

One may read the IC50 as the midpoint of a concentration-inhibition curve.
